From article PMC8525588, “Direct targeting of wild-type glucocerebrosidase by antipsychotic quetiapine improves pathogenic phenotypes in Parkinson’s disease models” (JCI Insight, 2021)

Target: T1, β-glucocerebrosidase (GCase) (Homo sapiens, UniProt P04062)
T1 construct: gene GBA1
T1 sequence (P04062 40-536): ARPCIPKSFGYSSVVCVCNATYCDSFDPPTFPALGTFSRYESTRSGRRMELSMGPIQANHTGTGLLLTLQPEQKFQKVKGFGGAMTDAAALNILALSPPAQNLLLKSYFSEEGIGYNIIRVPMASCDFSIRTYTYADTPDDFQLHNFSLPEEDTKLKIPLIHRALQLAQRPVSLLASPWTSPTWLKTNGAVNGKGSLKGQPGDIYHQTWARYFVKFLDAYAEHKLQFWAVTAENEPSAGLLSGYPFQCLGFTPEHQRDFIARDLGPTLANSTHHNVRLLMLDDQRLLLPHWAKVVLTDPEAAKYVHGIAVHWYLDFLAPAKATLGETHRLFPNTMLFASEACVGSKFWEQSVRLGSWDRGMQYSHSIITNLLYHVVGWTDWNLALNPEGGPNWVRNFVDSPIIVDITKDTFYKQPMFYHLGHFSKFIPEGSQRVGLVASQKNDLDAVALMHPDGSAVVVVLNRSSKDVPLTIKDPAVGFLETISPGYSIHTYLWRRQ
Test: biochemical

- Kd: 5 µM
Compound: OCCOCCN1CCN(C2=Nc3ccccc3Sc3ccccc32)CC1 [quetiapine]
